Experimental data reported in the supplement of paper PMC6045584.
± gives the standard deviation of the averaged measurements.

Key:
[1] = compound: CCC1=C[C@@H]2CN(C1)Cc1c([nH]c3ccccc13)[C@@](C(=O)OC)(c1cc3c(cc1OC)N(C)[C@H]1[C@@](O)(C(=O)OC)[C@H](OC(C)=O)[C@]4(CC)C=CCN5CC[C@]31[C@@H]54)C2 [VINORELBINE]; experiment: surviving fraction relative to DMSO-only wells; higher = less growth inhibition; details: exposure time: 5 days
Outline: (§1)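 Log-phase tumour cell lines were seeded at 250–500 cells per well in 384-well plates. After 24 hours they were exposed continuously for five days to inhibitors at 0.5, 1, 5, 10, 50, 100, 500 and 1000 nM. Viability was read by CellTiter-Glo luminescence after 10 minutes at room temperature, and surviving fraction is luminescence normalised to the median of DMSO-only wells. Each line was screened three times and kept only if replicate Pearson r >0.7 and median Z' >0.3.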

[2] = compound: CCN(CC)CCNC(=O)c1c(C)[nH]c(/C=C2\C(=O)Nc3ccc(F)cc32)c1C [SUNITINIB]; experiment: as above; details: exposure time: 5 days
Outline: as §1

Row | Test System | surviving fraction ([1]; 0.5 nM) | surviving fraction ([1]; 1 nM) | surviving fraction ([1]; 5 nM) | surviving fraction ([1]; 10 nM) | surviving fraction ([1]; 50 nM) | surviving fraction ([1]; 100 nM) | surviving fraction ([1]; 500 nM) | surviving fraction ([1]; 1000 nM) | surviving fraction ([2]; 0.5 nM) | surviving fraction ([2]; 1 nM) | surviving fraction ([2]; 5 nM) | surviving fraction ([2]; 10 nM) | surviving fraction ([2]; 50 nM) | surviving fraction ([2]; 100 nM) | surviving fraction ([2]; 500 nM) | surviving fraction ([2]; 1000 nM)
1 | MDAMB231 BREAST | 0.976 ± 0.035 | 0.998 ± 0.02 | 0.904 ± 0.027 | 0.681 ± 0.027 | 0.238 ± 0.008 | 0.244 ± 0.0099 | 0.189 ± 0.0019 | 0.172 ± 0.009 | 0.955 ± 0.016 | 0.9679 ± 0.0028 | 0.979 ± 0.012 | 0.976 ± 0.033 | 1.09 ± 0.017 | 1.12 ± 0.017 | 1.04 ± 0.0064 | 0.848 ± 0.011
2 | MDAMB361 BREAST | 0.791 ± 0.062 | 0.786 ± 0.076 | 0.695 ± 0.056 | 0.603 ± 0.016 | 0.607 ± 0.03 | 0.566 ± 0.04 | 0.5787 ± 0.0021 | 0.502 ± 0.058 | 0.683 ± 0.049 | 0.717 ± 0.023 | 0.696 ± 0.058 | 0.651 ± 0.025 | 0.82 ± 0.069 | – | 0.8 ± 0.011 | 0.527 ± 0.054
3 | MDAMB436 BREAST | 0.9 ± 0.064 | 0.88 ± 0.045 | 0.796 ± 0.12 | 0.742 ± 0.038 | 0.591 ± 0.032 | 0.51 ± 0.033 | 0.211 ± 0.013 | 0.221 ± 0.018 | 0.761 ± 0.07 | 0.78 ± 0.046 | 0.79 ± 0.011 | 0.79 ± 0.099 | 0.85 ± 0.087 | 0.913 ± 0.071 | 0.718 ± 0.061 | 0.596 ± 0.023
4 | MDAMB453 BREAST | 1.04 ± 0.049 | 1.029 ± 0.004 | 0.387 ± 0.038 | 0.244 ± 0.022 | 0.16 ± 0.034 | 0.116 ± 0.018 | 0.176 ± 0.044 | 0.25 ± 0.048 | 0.982 ± 0.0066 | – | – | 1.03 ± 0.026 | 1.022 ± 0.005 | – | 0.986 ± 0.059 | 0.724 ± 0.047
5 | MDAMB468 BREAST | 1.02 ± 0.065 | 0.929 ± 0.019 | 0.645 ± 0.025 | 0.379 ± 0.041 | 0.0613 ± 0.007 | 0.0593 ± 0.005 | 0.117 ± 0.016 | 0.177 ± 0.0095 | 0.8 ± 0.046 | – | – | 0.927 ± 0.072 | 1.1 ± 0.091 | 1.04 ± 0.084 | – | –
6 | MFM223 BREAST | 1.13 ± 0.1 | 1.05 ± 0.066 | 0.905 ± 0.094 | 0.512 ± 0.01 | 0.0818 ± 0.0055 | 0.0723 ± 0.011 | 0.0547 ± 0.00076 | 0.0517 ± 0.0023 | 0.75 ± 0.033 | 0.758 ± 0.032 | 0.7412 ± 0.002 | 0.707 ± 0.041 | 1.01 ± 0.11 | 0.832 ± 0.058 | 0.398 ± 0.013 | 0.247 ± 0.015
7 | MG63 BONE | 1.02 ± 0.025 | 1 ± 0.043 | 1.06 ± 0.02 | 1 ± 0.023 | 0.07 ± 0.0095 | 0.0503 ± 0.014 | 0.0683 ± 0.0071 | 0.065 ± 0.0046 | 0.872 ± 0.02 | 0.865 ± 0.034 | 0.876 ± 0.015 | – | 0.877 ± 0.028 | 0.854 ± 0.016 | 0.721 ± 0.025 | 0.637 ± 0.014
8 | MHM BONE | 1.01 ± 0.029 | 0.988 ± 0.029 | 1.022 ± 0.0092 | 1 ± 0.02 | 0.493 ± 0.025 | 0.325 ± 0.029 | 0.22 ± 0.013 | 0.195 ± 0.014 | 0.956 ± 0.038 | 0.962 ± 0.021 | 0.9887 ± 0.0061 | – | – | – | 0.881 ± 0.021 | 0.774 ± 0.021
9 | NCIH441 LUNG | 1.13 ± 0.13 | 1.11 ± 0.059 | 1.02 ± 0.072 | 0.877 ± 0.029 | 0.4817 ± 0.0045 | 0.422 ± 0.041 | 0.497 ± 0.054 | 0.423 ± 0.044 | 0.963 ± 0.039 | – | – | 0.952 ± 0.029 | 1.02 ± 0.043 | 0.977 ± 0.079 | – | 0.764 ± 0.079
10 | NOS1 BONE | 0.987 ± 0.04 | 1.1 ± 0.081 | 0.978 ± 0.024 | 0.805 ± 0.024 | 0.287 ± 0.047 | 0.263 ± 0.035 | 0.195 ± 0.017 | 0.188 ± 0.016 | 0.762 ± 0.05 | – | – | 0.645 ± 0.039 | 0.561 ± 0.029 | 0.391 ± 0.027 | 0.167 ± 0.012 | 0.113 ± 0.03
11 | NY BONE | 0.994 ± 0.019 | 0.964 ± 0.026 | 0.924 ± 0.075 | 0.437 ± 0.016 | 0.0393 ± 0.0031 | 0.035 ± 0.006 | 0.0417 ± 0.0074 | 0.0433 ± 0.0075 | 0.904 ± 0.016 | 0.855 ± 0.023 | – | 0.918 ± 0.04 | 0.937 ± 0.01 | 0.929 ± 0.019 | 0.696 ± 0.023 | 0.481 ± 0.036
12 | OS25HAL BONE | 0.97 ± 0.046 | 0.985 ± 0.021 | 1.02 ± 0.024 | 0.912 ± 0.052 | 0.202 ± 0.02 | 0.0833 ± 0.0083 | 0.0677 ± 0.011 | 0.057 ± 0.007 | 0.886 ± 0.014 | – | – | 0.871 ± 0.053 | 0.926 ± 0.038 | 0.925 ± 0.02 | 0.767 ± 0.07 | 0.431 ± 0.04
13 | OSHN BONE | 1.07 ± 0.022 | 1.048 ± 0.0086 | 1.09 ± 0.021 | 1.04 ± 0.021 | 0.0367 ± 0.0021 | 0.025 ± 0.001 | 0.026 | 0.0293 ± 0.00058 | 0.9083 ± 0.0045 | 0.906 ± 0.0096 | – | 0.8813 ± 0.0055 | – | 0.962 ± 0.017 | 0.86 ± 0.019 | 0.42 ± 0.026
14 | PCI30 HEADNECK | 0.994 ± 0.024 | 1.05 ± 0.02 | 0.463 ± 0.054 | 0.228 ± 0.017 | 0.078 ± 0.003 | 0.0933 ± 0.022 | 0.113 ± 0.025 | 0.147 ± 0.025 | 0.949 ± 0.075 | 0.936 ± 0.033 | – | 1.13 ± 0.05 | 1.38 ± 0.064 | 1.45 ± 0.19 | 1.2 ± 0.033 | 1.03 ± 0.052
15 | RDES SOFT TISSUE | 1.23 ± 0.18 | 1.15 ± 0.28 | 1.19 ± 0.18 | 1.24 ± 0.39 | 0.0793 ± 0.0093 | 0.071 ± 0.011 | 0.039 ± 0.0036 | 0.039 ± 0.005 | 0.851 ± 0.24 | 0.741 ± 0.2 | 0.794 ± 0.11 | 0.794 ± 0.12 | – | 1.08 ± 0.19 | 1.17 ± 0.17 | 0.567 ± 0.099
16 | S68 BREAST | 1.12 ± 0.4 | 0.785 ± 0.22 | 0.995 ± 0.23 | 0.572 ± 0.26 | 0.155 ± 0.034 | 0.143 ± 0.013 | 0.0783 ± 0.015 | 0.0627 ± 0.0081 | 0.716 ± 0.13 | 0.674 ± 0.15 | – | 0.74 ± 0.18 | 1.07 ± 0.098 | 0.98 ± 0.13 | 0.709 ± 0.065 | 0.488 ± 0.1
17 | SAOS2 BONE | 1.12 ± 0.014 | 1.18 ± 0.066 | 1.07 ± 0.06 | 0.812 ± 0.038 | 0.155 ± 0.0063 | 0.0997 ± 0.0029 | 0.11 ± 0.0081 | 0.104 ± 0.032 | 0.792 ± 0.052 | 0.691 ± 0.088 | – | 0.692 ± 0.073 | 0.985 ± 0.064 | 0.863 ± 0.093 | 0.301 ± 0.046 | 0.154 ± 0.0052
18 | SCC36 HEADNECK | 1.09 ± 0.15 | 0.927 ± 0.057 | 1.09 ± 0.093 | 0.819 ± 0.059 | 0.161 ± 0.0035 | 0.135 ± 0.026 | 0.0993 ± 0.011 | 0.1 ± 0.024 | 0.754 ± 0.059 | 0.783 ± 0.11 | 0.8 ± 0.02 | 0.714 ± 0.078 | – | 0.872 ± 0.074 | 0.441 ± 0.047 | 0.222 ± 0.021
19 | SCC47 HEADNECK | 1.09 ± 0.13 | 1.06 ± 0.013 | 0.967 ± 0.055 | 0.693 ± 0.044 | 0.231 ± 0.023 | 0.1977 ± 0.0011 | 0.302 ± 0.022 | 0.289 ± 0.0068 | 0.886 ± 0.019 | 0.9 ± 0.059 | – | – | 1.02 ± 0.016 | – | 0.726 ± 0.022 | 0.502 ± 0.041
20 | SCC90 HEADNECK | 1.04 ± 0.072 | 1.04 ± 0.06 | 1.01 ± 0.12 | 0.616 ± 0.066 | 0.126 ± 0.0029 | 0.099 ± 0.0066 | 0.097 ± 0.01 | 0.106 ± 0.015 | – | 0.814 ± 0.086 | – | 0.887 ± 0.064 | – | 1.25 ± 0.17 | 0.819 ± 0.06 | 0.522 ± 0.052
21 | SG27 HEADNECK | 1.17 ± 0.16 | 1.09 ± 0.096 | 1.13 ± 0.12 | 1.08 ± 0.15 | 1.03 ± 0.1 | 1.15 ± 0.018 | 1.26 ± 0.08 | 1.33 ± 0.27 | – | 0.949 ± 0.026 | 0.922 ± 0.072 | 0.744 ± 0.046 | 1.22 ± 0.077 | 1.25 ± 0.12 | 1.72 ± 0.17 | 0.81 ± 0.064
22 | SG28 HEADNECK | 1.17 ± 0.22 | 1.04 ± 0.061 | 0.998 ± 0.099 | 0.861 ± 0.13 | 0.589 ± 0.087 | 0.538 ± 0.11 | 0.521 ± 0.016 | 0.542 ± 0.071 | 0.913 ± 0.11 | 0.789 ± 0.051 | 0.807 ± 0.086 | 0.313 ± 0.042 | 0.893 ± 0.14 | 0.725 ± 0.044 | 0.4727 ± 0.0046 | 0.124 ± 0.017
